The results in this text go back to US5472949A, “N^4 -(substituted-oxycarbonyl)-5'-deoxy-5-fluorocytidine compounds, compositions and methods of using same” (Hoffmann-La Roche Inc., priority 1992, dated 1995).

Where two headings read alike, the source gives them in different places.

Series [1] can be described thus: Pharmacokinetic profiles in monkeys (plasma 5'-DFUR after oral administration). The class given is in vivo. The conditions noted are these: cynomolgous monkeys, metabolite 5'-DFUR in plasma. Here is the method:
The compounds of formula (I) were orally administered into groups of 2 to 5 cynomolgous monkeys (3-4 kg). At various times after the administration, plasma was taken for determination of blood concentrations of intact molecules and their active metabolite 5'-DFUR. Metabolites in the plasma were separated by HPLC and their concentrations were calculated.

The subject of series [2] is colon 26 carcinoma. Briefly: Antitumor and anticachexia activity against mouse colon 26 carcinoma. The conditions noted are these: for Serum IAP: IAP = immunosuppressive acidic protein. The format is in vivo, Mice (CDF1). Here is the method: Antitumor activity of a representative compound (Example 13), of the present invention, was measured as follows. Mice (CDF1) were subcutaneously inoculated with colon 26 carcinoma (10^6 cells) on day 0. The compound was administered daily for 7 times from day 21 when the animals became cachectic. One day after the last treatment, tumor weight gain, carcass weight gain, adipose tissue weight, concentrations of glucose and the acute phase reactant IAP (immunosuppressive acidic protein) in the serum were measured.

The test system of series [3] is human liver acylamidase. Briefly: Susceptibility to human liver acylamidase (crude liver extract, 5'-DFCR formed by HPLC). The class given is in vitro ADME. The conditions noted are these: tetrahydrouridine 0.4 mM, 37° C., 60 min. The method, then: (§1) The N^4 -(substituted-oxycarbonyl)-5'-DFCRs of the invention were incubated with crude extracts of monkey and human liver in the presence of an inhibitor of cytidine deaminase, tetrahydrouridine (0.4 mM) at 37° C. for 60 min. Thereafter, the product 5'-DFCR was separated by HPLC and the enzyme susceptibility was calculated from the amount of the product.

Series [4] concerns monkey liver acylamidase. Briefly: Susceptibility to monkey liver acylamidase (crude liver extract, 5'-DFCR formed by HPLC). The format is in vitro ADME. The conditions noted are these: tetrahydrouridine 0.4 mM, 37° C., 60 min. The method, then:
as §1

Series [5] concerns CXF280 Human Colon Carcinoma. As to the kind of experiment: Antitumor testing against human colon cancer xenograft CXF280. The format is in vivo, BALB/c nu/nu mice. Details: key to Fecal observation: N: normal feces; L: loose passage. The method, then:
CXF280 tumor (about 2×2 mm piece) was implanted subcutaneously into BALB/c nu/nu mice (21-22 g) on day 0. When tumor volume became 100 mm^3 on day around 14, the compounds of the invention were orally administered daily for 3 weeks. At one day after the last treatment, tumor volume was calculated.
The percent inhibition of tumor growth given in Table 3 above was calculated from the formula:
% Inhibition ={1-(T-V0)/(C-V0)}×100
V0 =volume of tumor before treatment was started, T=volume of the tumors from the treated group, C=volume of the tumor from the control group.
On the technique in general: In xenograft studies the graft and the host belong to different species.

Series [6] is described as follows: Toxicity (LD50), oral administration daily for 21 days in mice. The conditions noted are these: mouse, in vivo. The method, then:
The toxicity (LD50) of the representative compounds (Example 13,14, and 17) of the present invention was examined by oral administration daily for 21 days in mice. The representative LD50 values obtained from the experiments were more than 500 mg/kg/day.

In general, LD50 refers to the dose expected to kill half of the subjects tested. `CCCCCCOC(=O)Nc1nc(=O)n([C@@H]2O[C@H](C)[C@@H](O)[C@H]2O)cc1F` [Example 13, 5'-deoxy-5-fluoro-N^4-(hexyloxycarbonyl)cytidine]: the “Plasma 5'-DFUR AUC” value in series [1] was determined as 1960 ng·h/mL. In series [2] (0.125 mmol/kg x 7, from day 21), this compound displayed an Adipose tissue wt. of 22 mg, a Carcass wt. change of 1.6 g, a Serum glucose of 118 mg/dL and a Tumor wt. change of 1.24 g. Besides, in series [2] (0.125 mmol/kg x 7, from day 21), the “Serum IAP” value turned out to be 1195 µg/mL. In series [2] (0.25 mmol/kg x 7, from day 21), this compound showed an Adipose tissue wt. of 42 mg, a Carcass wt. change of 3.4 g, a Serum glucose of 120 mg/dL and a Tumor wt. change of 0.91 g. The “Serum IAP” value in series [2] (0.25 mmol/kg x 7, from day 21) is 1020 µg/mL. Also, in series [2] (0.5 mmol/kg x 7, from day 21), the Adipose tissue wt. was determined as 63 mg, the Carcass wt. change is on record as 4.2 g, the Serum glucose was found to be 147 mg/dL and the Tumor wt. change was found to be 0.79 g. The “Serum IAP” value in series [2] (0.5 mmol/kg x 7, from day 21) was determined as 805 µg/mL. Besides, in series [2] (1 mmol/kg x 7, from day 21), the Adipose tissue wt. came out at 85 mg, the Carcass wt. change is reported as 5.6 g, the Serum glucose came out at 127 mg/dL and the Tumor wt. change is 0.006 g. Besides, the “Serum IAP” value in series [2] (1 mmol/kg x 7, from day 21) was 795 µg/mL. In addition, in series [2] (daily for 7 times from day 21), the “cachexia (in words)” value was “improved cachexia” and the “tumor growth (in words)” value was “suppressed tumor growth”. The “Acylamidase activity, Human Liver” value in series [3] is 220 nmol/mg protein/hr. The “Acylamidase activity, Monkey Liver” value in series [4] was found to be 47 nmol/mg protein/hr. In series [5] (Exp. 1, 1.5 mmol/kg/day x 21, oral), the Fecal observation result was “N”. In addition, in series [5] (Mus musculus, po, Exp. 1, 0.13 mmol/kg/day x 21, oral, read-out: % Growth inhibition), the inhibition in vivo at 0.13 mmol/kg/day amounted to 59%. Besides, the inhibition in vivo at 0.3 mmol/kg/day in series [5] (Mus musculus, po, Exp. 1, 0.3 mmol/kg/day x 21, oral, read-out: % Growth inhibition) was determined as 66%. The inhibition in vivo at 0.67 mmol/kg/day in series [5] (Mus musculus, po, Exp. 1, 0.67 mmol/kg/day x 21, oral, read-out: % Growth inhibition) turned out to be 79%. Besides, the inhibition in vivo at 1 mmol/kg/day in series [5] (Mus musculus, po, Exp. 1, 1.0 mmol/kg/day x 21, oral, read-out: % Growth inhibition) was 91%. Moreover, in series [5] (Mus musculus, po, Exp. 1, 1.5 mmol/kg/day x 21, oral, read-out: % Growth inhibition), the inhibition in vivo at 1.5 mmol/kg/day was determined as 94%. In series [6], this compound gave an LD50 at 504 h of more than 500 mg/kg.

In the case of `CC(C)CCOC(=O)Nc1nc(=O)n([C@@H]2O[C@H](C)[C@@H](O)[C@H]2O)cc1F` [Example 14, 5'-deoxy-5-fluoro-N^4-(isopentyloxycarbonyl)cytidine], the “Plasma 5'-DFUR AUC” value in series [1] worked out at 2400 ng·h/mL. In series [3], the “Acylamidase activity, Human Liver” value amounted to 74 nmol/mg protein/hr. In addition, in series [4], the “Acylamidase activity, Monkey Liver” value came out at 32 nmol/mg protein/hr. Besides, the Fecal observation result in series [5] (Exp. 2, 1.5 mmol/kg/day x 21, oral) was “N”; in series [5] (Exp. 2, 2.25 mmol/kg/day x 21, oral), “N”. The inhibition in vivo at 0.13 mmol/kg/day in series [5] (Mus musculus, po, Exp. 2, 0.13 mmol/kg/day x 21, oral, read-out: % Growth inhibition) is 68%. Also, the inhibition in vivo at 0.3 mmol/kg/day in series [5] (Mus musculus, po, Exp. 2, 0.3 mmol/kg/day x 21, oral, read-out: % Growth inhibition) stood at 68%. The inhibition in vivo at 0.67 mmol/kg/day in series [5] (Mus musculus, po, Exp. 2, 0.67 mmol/kg/day x 21, oral, read-out: % Growth inhibition) was found to be 85%. Moreover, in series [5] (Mus musculus, po, Exp. 2, 1.5 mmol/kg/day x 21, oral, read-out: % Growth inhibition), the inhibition in vivo at 1.5 mmol/kg/day was found to be 94%. In addition, the inhibition in vivo at 2.25 mmol/kg/day in series [5] (Mus musculus, po, Exp. 2, 2.25 mmol/kg/day x 21, oral, read-out: % Growth inhibition) was 100%. For the same compound, in series [6], the 50% lethal dose (LD50) at 504 h was more than 500 mg/kg.
